Data as given in ChEMBL document CHEMBL1132095, “6-arylamino-5,8-quinolinediones and 7-arylamino-5,8-isoquinolinediones as inhibitors of endothelium-dependent vasorelaxation” (Bioorg Med Chem Lett, 1999).

Legend:
Rattus norvegicus [1] = species: Rattus norvegicus; experiment: Percent of maximal acetylcholine (ACh)-induced vasorelaxation of the rat aorta; format: functional
Rattus norvegicus [2] = species: Rattus norvegicus; experiment: Inhibitory activity on acetylcholine-induced vasorelaxation of phenylephrine-precontracted rat aorta with intact endothelium; format: functional, organism-based

In the case of O=C1C(Nc2ccc(F)cc2F)=CC(=O)c2ncccc21, the Emax (Rattus norvegicus [1]) is reported as 94% and the EC50 (Rattus norvegicus [2]) is reported as 288 nM.
For O=C1C=C(Nc2ccc(F)cc2F)C(=O)c2cnccc21, the Emax (Rattus norvegicus [1]) was 96% and the EC50 (Rattus norvegicus [2]) was 430 nM.
Work on O=C1C=CC(=O)c2ncccc21 yielded an Emax (Rattus norvegicus [1]) of 80% and an EC50 (Rattus norvegicus [2]) of 519 nM.
For O=C1C=C(Nc2cccc(F)c2)C(=O)c2cnccc21, the Emax (Rattus norvegicus [1]) was 89% and the EC50 (Rattus norvegicus [2]) was 562 nM.
In the case of O=C1C(Nc2ccc(C(F)(F)F)cc2)=CC(=O)c2ncccc21, the Emax (Rattus norvegicus [1]) is reported as 91% and the EC50 (Rattus norvegicus [2]) is reported as 607 nM.
O=C1C=C(Nc2ccc(F)c(F)c2F)C(=O)c2cnccc21 was tested, and the Emax (Rattus norvegicus [1]) was 87% and the EC50 (Rattus norvegicus [2]) was 1130 nM.
O=C1C(Nc2ccc(F)c(F)c2F)=CC(=O)c2ncccc21 was tested, and the Emax (Rattus norvegicus [1]) was 72% and the EC50 (Rattus norvegicus [2]) was 937 nM.
For O=C1C(Nc2ccccc2)=CC(=O)c2ncccc21, the Emax (Rattus norvegicus [1]) was 77% and the EC50 (Rattus norvegicus [2]) was 335 nM.
For O=C1C(Nc2cccc(F)c2)=CC(=O)c2ncccc21, the Emax (Rattus norvegicus [1]) was 85% and the EC50 (Rattus norvegicus [2]) was 805 nM.
O=C1C(Nc2ccc(I)cc2)=CC(=O)c2ncccc21 showed an Emax (Rattus norvegicus [1]) of 89% and an EC50 (Rattus norvegicus [2]) of 214 nM.
For O=C1C=C(Nc2ccc(F)cc2)C(=O)c2cnccc21, the Emax (Rattus norvegicus [1]) was 72% and the EC50 (Rattus norvegicus [2]) was 1230 nM.
In the case of O=C1C=C(Nc2ccc(F)c(F)c2)C(=O)c2cnccc21, the Emax (Rattus norvegicus [1]) is reported as 81% and the EC50 (Rattus norvegicus [2]) is reported as 640 nM.
O=C1C=C(Nc2ccc(Cl)cc2)C(=O)c2ccccc21 gave an Emax (Rattus norvegicus [1]) of 98% and an EC50 (Rattus norvegicus [2]) of 220 nM.
O=C1C(Nc2ccc(F)cc2)=CC(=O)c2ncccc21 showed an Emax (Rattus norvegicus [1]) of 79% and an EC50 (Rattus norvegicus [2]) of 541 nM.
Work on O=C1C=C(Nc2ccc(Cl)cc2)C(=O)c2cnccc21 yielded an Emax (Rattus norvegicus [1]) of 96% and an EC50 (Rattus norvegicus [2]) of 190 nM.
Work on O=C1C(Nc2ccc(Br)cc2)=CC(=O)c2ncccc21 yielded an Emax (Rattus norvegicus [1]) of 88% and an EC50 (Rattus norvegicus [2]) of 302 nM.
In the case of O=C1C(Nc2ccc(Cl)cc2)=CC(=O)c2ncccc21, the Emax (Rattus norvegicus [1]) is reported as 86% and the EC50 (Rattus norvegicus [2]) is reported as 178 nM.
Work on O=C1C=C(Nc2ccc(F)c(F)c2F)C(=O)c2ccccc21 yielded an Emax (Rattus norvegicus [1]) of 97% and an EC50 (Rattus norvegicus [2]) of 330 nM.
Compound O=C1C(Nc2ccc(F)c(F)c2)=CC(=O)c2ncccc21 has an Emax (Rattus norvegicus [1]) of 92% and an EC50 (Rattus norvegicus [2]) of 251 nM.
Work on O=C1C=C(Nc2ccccc2)C(=O)c2cnccc21 yielded an Emax (Rattus norvegicus [1]) of 93% and an EC50 (Rattus norvegicus [2]) of 439 nM.
Compound O=C1C(Nc2ccc(OC(F)(F)F)cc2)=CC(=O)c2ncccc21 has an Emax (Rattus norvegicus [1]) of 88% and an EC50 (Rattus norvegicus [2]) of 603 nM.
O=C1C=C(Nc2ccccc2)C(=O)c2ccccc21 was tested, and the Emax (Rattus norvegicus [1]) was 98% and the EC50 (Rattus norvegicus [2]) was 239 nM.
For O=C1C=C(Nc2ccc(F)cc2)C(=O)c2ccccc21, the Emax (Rattus norvegicus [1]) was 98% and the EC50 (Rattus norvegicus [2]) was 362 nM.
O=C1C(Nc2cc(F)cc(F)c2)=CC(=O)c2ncccc21 showed an Emax (Rattus norvegicus [1]) of 91% and an EC50 (Rattus norvegicus [2]) of 449 nM.
O=C1C=C(Nc2cc(F)cc(F)c2)C(=O)c2cnccc21 showed an Emax (Rattus norvegicus [1]) of 94% and an EC50 (Rattus norvegicus [2]) of 290 nM.
Work on O=C1C=CC(=O)c2ccccc21 [NAPHTHOQUINONE] yielded an Emax (Rattus norvegicus [1]) of 98% and an EC50 (Rattus norvegicus [2]) of 127 nM.
For N=C(NCCC[C@H](N)C(=O)O)N[N+](=O)[O-] [NITROARGININE], the Emax (Rattus norvegicus [1]) was 69% and the EC50 (Rattus norvegicus [2]) was 1100 nM.
